In the supplement of paper PMC13207355:
± gives the standard deviation of the averaged measurements.

Legend:
Conditions in all cases: exposure time: 72 h
E28 [1] = patient-derived glioblastoma stem cells of classical subtype; assay: surviving fraction (nuclei count normalised to DMSO); higher = more cells surviving (less toxic)
E34 [2] = patient-derived glioblastoma stem cells of proneural subtype; assay: as above
E13 [3] = patient-derived glioblastoma stem cells of classical subtype; assay: as above
E21 [4] = patient-derived glioblastoma stem cells of mesenchymal subtype; assay: as above
FT3469 [5] = normal neural stem cell line; assay: as above
E57 [6] = patient-derived glioblastoma stem cells of mesenchymal subtype; assay: as above
E28 [7] = assay: phenotypic distance (Euclidean, principal components) from DMSO controls (arbitrary units); higher = stronger morphological change
E34 [8] = assay: as above
E13 [9] = assay: as above
E21 [10] = assay: as above
FT3469 [11] = assay: as above
E57 [12] = assay: as above
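Throughout, for phenotypic distance (Euclidean, principal components) from DMSO controls: cell Painting imaging in 384-well plates, CellProfiler features reduced to at least 20 principal components, Euclidean distance versus same-plate DMSO vehicle wells (0.1% v/v), median over six images per well.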
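Throughout, for surviving fraction (nuclei count normalised to DMSO): nuclei counted by high-content imaging of Hoechst-stained cells in laminin-coated 384-well plates, relative to 0.1% DMSO vehicle wells, with staurosporine as cell-death control.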

CCn1c(-c2nonc2N)nc2cnc(Oc3cccc(NC(=O)c4ccc(OCCN5CCOCC5)cc4)c3)cc21
Conditions | phenotypic distance | surviving fraction
E13 [3], 4.1 nM | – | 0.992 ± 0.048
E13 [3], 12.3 nM | – | 0.995 ± 0.035
E13 [3], 37 nM | – | 0.9924 ± 0.0054
E13 [3], 111.1 nM | – | 1.0033 ± 0.00067
E13 [3], 333.3 nM | – | 1.03 ± 0.054
E13 [3], 1000 nM | – | 0.729 ± 0.077
E13 [3], 3000 nM | – | 0.633 ± 0.011
E13 [9], 4.1 nM | 2.07 ± 0.12 | –
E13 [9], 12.3 nM | 2.22 ± 0.034 | –
E13 [9], 37 nM | 2.86 ± 0.92 | –
E13 [9], 111.1 nM | 2.12 ± 0.14 | –
E13 [9], 333.3 nM | 2.126 ± 0.021 | –
E13 [9], 1000 nM | 2.51 ± 0.32 | –
E13 [9], 3000 nM | 3.08 ± 0.28 | –
E21 [4], 4.1 nM | – | 0.933 ± 0.058
E21 [4], 12.3 nM | – | 0.948
E21 [4], 37 nM | – | 0.974 ± 0.049
E21 [4], 111.1 nM | – | 0.925 ± 0.12
E21 [4], 333.3 nM | – | 0.898 ± 0.05
E21 [4], 1000 nM | – | 0.613 ± 0.032
E21 [4], 3000 nM | – | 0.448 ± 0.037
E21 [10], 4.1 nM | 1.88 ± 0.33 | –
E21 [10], 12.3 nM | 2.27 ± 0.097 | –
E21 [10], 37 nM | 2.12 ± 0.036 | –
E21 [10], 111.1 nM | 2.01 ± 0.098 | –
E21 [10], 333.3 nM | 1.94 ± 0.17 | –
E21 [10], 1000 nM | 2.16 ± 0.28 | –
E21 [10], 3000 nM | 2.66 ± 0.25 | –
E28 [1], 4.1 nM | – | 0.9684 ± 0.0013
E28 [1], 12.3 nM | – | 0.977 ± 0.023
E28 [1], 37 nM | – | 1.02 ± 0.11
E28 [1], 111.1 nM | – | 0.996 ± 0.069
E28 [1], 333.3 nM | – | 0.909 ± 0.034
E28 [1], 1000 nM | – | 0.619 ± 0.0067
E28 [1], 3000 nM | – | 0.5398 ± 0.0033
E28 [7], 4.1 nM | 2.14 ± 0.14 | –
E28 [7], 12.3 nM | 2.12 ± 0.071 | –
E28 [7], 37 nM | 2.16 ± 0.14 | –
E28 [7], 111.1 nM | 2.28 ± 0.11 | –
E28 [7], 333.3 nM | 2.41 ± 0.027 | –
E28 [7], 1000 nM | 3.356 ± 0.0074 | –
E28 [7], 3000 nM | 3.1 ± 0.3 | –
E34 [2], 4.1 nM | – | 1.12 ± 0.078
E34 [2], 12.3 nM | – | 1.14 ± 0.2
E34 [2], 37 nM | – | 1.176 ± 0.0026
E34 [2], 111.1 nM | – | 0.989 ± 0.056
E34 [2], 333.3 nM | – | 1.02 ± 0.087
E34 [2], 1000 nM | – | 0.887 ± 0.11
E34 [2], 3000 nM | – | 0.746 ± 0.021
E34 [8], 4.1 nM | 1.73 ± 0.42 | –
E34 [8], 12.3 nM | 1.69 ± 0.44 | –
E34 [8], 37 nM | 2.04 ± 0.11 | –
E34 [8], 111.1 nM | 1.79 ± 0.17 | –
E34 [8], 333.3 nM | 1.73 ± 0.2 | –
E34 [8], 1000 nM | 1.67 ± 0.12 | –
E34 [8], 3000 nM | 2.39 ± 0.25 | –
E57 [6], 4.1 nM | – | 1.06 ± 0.028
E57 [6], 12.3 nM | – | 1.01 ± 0.054
E57 [6], 37 nM | – | 1.01 ± 0.011
E57 [6], 111.1 nM | – | 0.996 ± 0.043
E57 [6], 333.3 nM | – | 0.86 ± 0.025
E57 [6], 1000 nM | – | 0.645 ± 0.083
E57 [6], 3000 nM | – | 0.486 ± 0.059
E57 [12], 4.1 nM | 0.962 ± 0.15 | –
E57 [12], 12.3 nM | 1.68 ± 1.1 | –
E57 [12], 37 nM | 0.775 ± 0.097 | –
E57 [12], 111.1 nM | 0.817 ± 0.15 | –
E57 [12], 333.3 nM | 1.73 ± 0.51 | –
E57 [12], 1000 nM | 2.26 ± 0.43 | –
E57 [12], 3000 nM | 3.68 ± 0.26 | –
FT3469 [5], 4.1 nM | – | 1.18 ± 0.047
FT3469 [5], 12.3 nM | – | 1.18 ± 0.11
FT3469 [5], 37 nM | – | 1.12 ± 0.095
FT3469 [5], 111.1 nM | – | 1.055 ± 0.0038
FT3469 [5], 333.3 nM | – | 1.06 ± 0.14
FT3469 [5], 1000 nM | – | 0.911 ± 0.014
FT3469 [5], 3000 nM | – | 0.766 ± 0.07
FT3469 [11], 4.1 nM | 2.61 ± 1.5 | –
FT3469 [11], 12.3 nM | 1.73 ± 0.41 | –
FT3469 [11], 37 nM | 1.75 ± 0.065 | –
FT3469 [11], 111.1 nM | 1.587 ± 0.0035 | –
FT3469 [11], 333.3 nM | 1.48 ± 0.056 | –
FT3469 [11], 1000 nM | 1.9 ± 0.018 | –
FT3469 [11], 3000 nM | 3.17 ± 0.13 | –
